Literature values as cited in EP4632015A1, “COMPOUNDS FOR USE IN IN VIVO FLUORESCENCE-LIFETIME IMAGING” (Université de Bourgogne, priority 2024, dated 2025).

Settings: in a biological environment

In the case of CC1(C)C(=CC=C2CCCC(C=CC3=[N+](CCCCCC(=O)[O-])c4ccc(S(=O)(=O)[O-])cc4C3(C)C)=C2Oc2ccc(S(=O)(=O)[O-])cc2)N(CCCCS(=O)(=O)[O-])c2ccc(S(=O)(=O)[O-])cc21.[Na+].[Na+].[Na+].[Na+] [IRDye800CW], the lifetime is listed as “less than 1 ns”.

In the case of CC1(C)C(/C=C/C=C/C=C/C=C2\N(CCCCS(=O)(=O)[O-])c3ccc4ccccc4c3C2(C)C)=[N+](CCCCS(=O)(=O)[O-])c2ccc3ccccc3c21.[Na+] [ICG], the lifetime is given as “less than 1 ns”.
